{"source": "patent US20200093786A1", "about": "“S[…] OF CANNABIS FOR TREATING MULTIPLE MYELOMA” (One World Cannabis LTD, priority 2014, published 2020)", "key": {"[1]": {"tested_on": "RPMI-MR20 (mitoxantrone-resistant cells)", "test": "XTT cell viability, mitoxantrone-resistant MM cells (Example 9)", "format": "cell-based", "settings": "RPMI-MR20, 48 hours, concentration dependent manner, FIG. 5", "protocol": "(§1) RPMI-MR20, RPMI-LR5 and RPMI-Dox40 were cultured during 48 hours with CBD (FIG. 5A), THC (FIG. 5B), CBD:THC 1:1 (FIG. 5C), CBD:THC 1:5 (FIG. 5D) and CBD:THC 5:1 (FIG. 5E). XTT assay was performed to assess cell viability."}, "[2]": {"tested_on": "RPMI-LR5 (LEN-resistant cells)", "test": "XTT cell viability, LEN-resistant MM cells (Example 9)", "format": "cell-based", "settings": "RPMI-LR5, 48 hours, concentration dependent manner, FIG. 5", "protocol": "as §1"}, "[3]": {"tested_on": "RPMI-Dox40 (DOXO-resistant cells)", "test": "XTT cell viability, DOXO-resistant MM cells (Example 9)", "format": "cell-based", "settings": "RPMI-Dox40, 48 hours, concentration dependent manner, FIG. 5", "protocol": "as §1"}, "[4]": {"tested_on": "CD138+ cells from myeloma patients", "test": "XTT cell viability and combination index, CD138+ cells from bone marrow aspirate of MM patients (Example 8)", "format": "cell-based, human", "settings": "for survival of MM cells (in words): CD138+ patient cells, each of the patients tested, concentration dependent manner, FIG. 4; for IC50: Homo sapiens, read-out: dose that caused 50% of MM cell death (IC50); for sensitivity of the patient's cells / more effective combination (in words): CD138+ cells, 48 hours", "protocol": "This conversion only occurs in viable cells.\nPeripheral blood samples from MM patients and healthy donors are processed by Ficoll density gradient centrifugation to isolate peripheral blood mononuclear cells (PBMCs). […] For co-culture assays MM cells are stained with CFSE, cultured in the presence of HS-5 human stroma cell line, treated with the drugs and their viability is evaluated by counterstained with PI and cell viability evaluation by flow cytometer analysis.\nXTT assay was performed to assess cell viability. Each treatment was performed in triplicate and presented as mean±SE.\nCombination Index (CI) value <1, =1, >1 indicates synergism, additive effect, and antagonism, respectively. Pat 1, 2, 3 indicate the patient number."}, "MM cells": {"tested_on": "MM cells", "settings": "CBD by itself or in synergy with bortezomib; reference [8]; cited from earlier work"}}, "note": "Where two headings read alike, the source gives them in different places."}
{"smiles": "CCCCCc1cc(O)c2c(c1)OC(C)(C)[C@@H]1CCC(C)=C[C@@H]21", "note": "[THC, Tetrahydrocannabinol]", "values": [{"measurement": "survival of MM cells (in words)", "setting": "[1]", "result": "decreased survival"}, {"measurement": "survival of MM cells (in words)", "setting": "[2]", "result": "decreased survival"}, {"measurement": "survival of MM cells (in words)", "setting": "[3]", "result": "decreased survival"}, {"measurement": "survival of MM cells (in words)", "setting": "[4]", "result": "decreased survival"}, {"measurement": "IC50", "setting": "[4]; 48 h", "result": "6 to 35", "unit": "µM"}, {"measurement": "sensitivity of the patient's cells / more effective combination (in words)", "setting": "[4]; Patient 3 (VCD)", "result": "less sensitive to THC than to CBD"}]}
{"smiles": "C=C(C)[C@@H]1CCC(C)=C[C@H]1c1c(O)cc(CCCCC)cc1O", "note": "[CBD, Cannabidiol]", "values": [{"measurement": "survival of MM cells (in words)", "setting": "[1]", "result": "decreased survival"}, {"measurement": "survival of MM cells (in words)", "setting": "[2]", "result": "decreased survival"}, {"measurement": "survival of MM cells (in words)", "setting": "[3]", "result": "decreased survival"}, {"measurement": "growth of MM cells (in words)", "setting": "MM cells", "result": "strongly inhibited growth"}, {"measurement": "survival of MM cells (in words)", "setting": "[4]", "result": "decreased survival"}, {"measurement": "IC50", "setting": "[4]; CD138+ cells of patients 1 to 3, 48 hours, FIG. 4D", "result": "6.7 to 12.5", "unit": "µM"}, {"measurement": "sensitivity of the patient's cells / more effective combination (in words)", "setting": "[4]; Patient 1 (SM, no treatment)", "result": "less sensitive to CBD than to THC"}, {"measurement": "sensitivity of the patient's cells / more effective combination (in words)", "setting": "[4]; Patient 2 (VTD)", "result": "slightly more sensitive to CBD than to THC"}]}
